Assay results taken from ChEMBL document CHEMBL5614386, “Design, synthesis, and biological evaluation of novel 1-amido-2-one-4-thio-deoxypyranose as potential antitumor agents for multiple myeloma” (Bioorg Med Chem, 2024).
Activity calls are given as the source filed them. The rule behind the calls is not given here.

Key:
[1] = test system: NCI-H929; test: Induction of DNA damage in human NCI-H929 cells assessed as increase gamma-H2AX level at 10 to 20 uM incubated for 24 hrs by Western blot analysis; type: functional, cell-based; details: dose 10-20 µM
[2] = test system: ARP-1; test: Anti-proliferative activity against human ARP-1 cells assessed as inhibition cell growth at 5 uM incubated for 72 hrs by CCK-8 assay; type: functional, cell-based
[3] = Toxicity in BALB/c nude mouse xenografted with human NCI-H929 cells assessed as drug tolerance at 50 mg/kg, sc administrated every other day for 13 days by H and E staining based light microscopic analysis; type: organism-based; details: in vivo, 312 h, time 13 day
[4] = Toxicity in BALB/c mouse assessed as histological change in liver at 50 mg/kg, sc administrated every other day for 13 days by H and E staining based light microscopic analysis; type: organism-based; details: in vivo, 312 h, time 13 day
[5] = Toxicity in BALB/c mouse xenografted with human NCI-H929 cells assessed as effect on body weight at 50 mg/kg, sc administrated every other day for 13 days; type: organism-based; details: in vivo, 312 h, time 13 day
[6] = Toxicity in BALB/c mouse assessed as histological change in heart at 50 mg/kg, sc administrated every other day for 13 days by H and E staining based light microscopic analysis; type: organism-based; details: in vivo, 312 h, time 13 day
[7] = test system: NCI-H929; test: Antitumor activity against human NCI-H929 cells xenografted in BALB/C nude mouse model assessed as reduction in tumor growth at 50 mg/kg, sc administrated every other day for 13 days; type: functional, organism-based; details: time 13.0 day
[8] = Toxicity in BALB/c mouse assessed as histological change in tumor at 50 mg/kg, sc administrated every other day for 13 days by H and E staining based light microscopic analysis; type: organism-based; details: in vivo, 312 h, time 13 day
[9] = test system: NCI-H929; test: Antitumor activity against human NCI-H929 cells xenografted in BALB/c nude mouse assessed as Ki-67 activity in tumor by microscopy based analysis; type: functional, cell-based
[10] = Toxicity in BALB/c mouse assessed as histological change in kidney at 50 mg/kg, sc administrated every other day for 13 days by H and E staining based light microscopic analysis; type: organism-based; details: in vivo, 312 h, time 13 day
[11] = test system: NCI-H929; test: Anti-proliferative activity against human NCI-H929 cells assessed as inhibition cell growth at 5 uM incubated for 72 hrs by CCK-8 assay; type: functional, cell-based
[12] = Toxicity in BALB/c nude mouse xenografted with human NCI-H929 cells assessed as side effect at 50 mg/kg, sc administrated every other day for 13 days by H and E staining based light microscopic analysis; type: organism-based; details: in vivo, 312 h, time 13 day
[13] = Anti-proliferative activity against human ARP-1cells assessed as cell growth inhibition incubated for 72 hrs by CCK-8 assay; details: ARP-1, 72 h
[14] = test system: NCI-H929; test: Anti-proliferative activity against human NCI-H929 cells assessed as cell growth inhibition incubated for 72 hrs by CCK-8 assay; details: NCI-H929, 72 h

- IC50 [14]: 1.24 µM
SMILES: COc1ccc(SC2CC(=O)[C@H](NC(=O)c3ccc4c(c3)OCO4)O[C@@H]2COC(C)=O)cc1OC (some centres undefined)
- Activity [1]: Active
- Activity [2]: Active
- Activity [3]: Non-Toxic
- Activity [4]: Non-Toxic
- Activity [5]: Non-Toxic
- Activity [6]: Non-Toxic
- Activity [7]: Active
- Activity [8]: Non-Toxic
- Activity [9]: Active
- Activity [10]: Non-Toxic
- Activity [11]: Active
- Activity [12]: Non-Toxic
- IC50 [13]: 2.07 µM
